From patent US20240251792A1, “WEED CONTROL METHOD” (SYNGENTA CROP PROTECTION AG, priority 2021, published 2024)
Where two headings read alike, the source gives them in different places.

Legend:
Format in all cases: in vivo
weeds and/or crops = assay: Post-emergence biological efficacy (Table 4); settings: 312 h, 1000 g/ha, evaluated after 13 days
Procedure: (§1) Seeds of weeds and/or crops were sown in standard soil in pots. After cultivation for 14 days under controlled conditions in a glasshouse (at 24/19° C., day/night; 16 hours light), the plants were sprayed with an aqueous spray solution derived from the formulation of the technical active ingredient in a small amount of acetone and a special solvent and emulsifier mixture referred to as F50 (11.12% Emulsogen EL360 TM+44.44% N-methylpyrrolidone+44.44% Dowanol DPM glycol ether), to create a 50 g/l solution which was then diluted using 0.2% Genapol X080 as diluent to give the desired final dose of test compound.
(§2) The test plants were then grown under controlled conditions in the glasshouse (at 24/18° C., day/night; 15 hours light; 50% humidity) and watered twice daily. After 13 days the test was evaluated (100=total damage to plant; 0=no damage to plant).

ZEAMX = assay: Pre-emergence biological efficacy (Table 3); settings: 312 h, 1000 g/ha, after 13 days, read-out: evaluation (100=total damage to plant; 0=no damage to plant)
Procedure: as §1, with “one day” for “14 days”, “AMA” for “F50”
as §2

STEME = assay: Pre-emergence biological efficacy (Table 3); settings: 312 h, after 13 days, read-out: evaluation (100=total damage to plant; 0=no damage to plant)
Procedure: as §1, with “one day” for “14 days”, “AMA” for “F50”
as §2

AMARE = assay: Pre-emergence biological efficacy (Table 3); settings: Amaranthus retroflexus, 312 h, 1000 g/ha, after 13 days, read-out: evaluation (100=total damage to plant; 0=no damage to plant)
Procedure: as §1, with “one day” for “14 days”, “AMA” for “F50”
as §2

ABUTH = assay: Pre-emergence biological efficacy (Table 3); settings: Abutilon theophrasti, 312 h, after 13 days, read-out: evaluation (100=total damage to plant; 0=no damage to plant)
Procedure: as §1, with “one day” for “14 days”, “AMA” for “F50”
as §2

IPOHE = assay: Pre-emergence biological efficacy (Table 3); settings: Ipomoea hederacea, 312 h, 1000 g/ha, after 13 days, read-out: evaluation (100=total damage to plant; 0=no damage to plant)
Procedure: as §1, with “one day” for “14 days”, “AMA” for “F50”
as §2

ECHCG = assay: Pre-emergence biological efficacy (Table 3); settings: Echinochloa crus-galli, 312 h, 1000 g/ha, after 13 days, read-out: evaluation (100=total damage to plant; 0=no damage to plant)
Procedure: as §1, with “one day” for “14 days”, “AMA” for “F50”
as §2

[1] = STEME, read-out: damage to plant STEME (100=total damage; 0=no damage)
[2] = ZEAMX, read-out: damage to plant ZEAMX (100=total damage; 0=no damage)
[3] = Amaranthus retroflexus, AMARE, read-out: damage to plant AMARE (100=total damage; 0=no damage)
[4] = Echinochloa crus-galli, ECHCG, read-out: damage to plant ECHCG (100=total damage; 0=no damage)
[5] = Ipomoea hederacea, IPOHE, read-out: damage to plant IPOHE (100=total damage; 0=no damage)
[6] = Abutilon theophrasti, ABUTH, read-out: damage to plant ABUTH (100=total damage; 0=no damage)

Structure (SMILES)	pest or weed control at 1000 g/ha (weeds and/or crops; [1]) [%]	pest or weed control at 1000 g/ha (weeds and/or crops; [2]) [%]	pest or weed control at 1000 g/ha (weeds and/or crops; [3]) [%]	pest or weed control at 1000 g/ha (weeds and/or crops; [4]) [%]	pest or weed control at 1000 g/ha (weeds and/or crops; [5]) [%]	plant injury at 1000 g/ha (ZEAMX) [%]	pest or weed control at 1000 g/ha (STEME) [%]	pest or weed control at 1000 g/ha (AMARE) [%]	pest or weed control at 1000 g/ha (ABUTH) [%]	pest or weed control at 1000 g/ha (IPOHE) [%]	pest or weed control at 1000 g/ha (weeds and/or crops; [6]) [%]	pest or weed control at 1000 g/ha (ECHCG) [%]
O=C(O)C(F)(F)c1cccc(O)c1 [Compound 1-5, 2,2-Difluoro-2-(3-hydroxyphenyl)acetic acid]	20	10	20	10	20	10	20	10	10	20	–	–
O=C(O)C(F)(F)c1cc(O)ccc1Cl [Compound 1-61, 2-(2-Chloro-5-hydroxyphenyl)-2,2-difluoroacetic acid]	10	10	10	–	20	0	0	20	0	0	10	–
O=C(O)C(F)(F)c1cc(-c2ccc(F)cc2)ccc1Cl [Compound 1-64, 2-(4-Chloro-4′-fluoro-[1,1′-biphenyl]-3-yl)-2,2-difluoroacetic acid]	0	40	50	–	50	10	0	0	0	10	0	–
O=C(O)C(F)(F)c1c(Cl)cccc1[N+](=O)[O-] [Compound 1-67, 2-(2-Chloro-6-nitrophenyl)-2,2-difluoroacetic acid]	10	10	30	–	60	10	0	0	0	30	10	–
Nc1cc(Cl)c(Cl)c(C(F)(F)C(=O)O)c1 [Compound 1-77, 3-[carboxy(difluoro)methyl]-4,5-dichloroanilinium]	30	10	60	0	10	0	10	10	10	30	–	–
O=C(O)C(F)(F)c1cc(-c2ccc(F)cc2)cc(Cl)c1Cl [Compound 1-78, 2-(4,5-Dichloro-4′-fluoro-[1,1′-biphenyl]-3-yl)-2,2-difluoroacetic acid]	0	30	50	–	40	0	0	0	–	0	10	–
COc1c(Cl)cc(Cl)c(Cl)c1C(F)(F)C(=O)O [Compound 1-82, 2,2-Difluoro-2-(2,3,5-trichloro-6-methoxy-phenyl)acetic acid]	10	20	60	–	30	0	30	60	–	20	20	–
CCc1cccc(C(F)(F)C(=O)O)c1Cl [Compound 1-196, 2-(2-Chloro-3-ethyl-phenyl)-2,2-difluoro-acetic acid]	90	10	50	–	70	20	80	40	70	70	80	–
C=Cc1cccc(C(F)(F)C(=O)O)c1Cl [Compound 1-207, 2-(2-Chloro-3-vinyl-phenyl)-2,2-difluoro-acetic acid]	90	30	70	–	80	30	90	80	90	90	80	–
C#Cc1cccc(C(F)(F)C(=O)O)c1Cl [Compound 1-208, 2-(2-Chloro-3-ethynyl-phenyl)-2,2-difluoro-acetic acid]	90	70	90	–	90	80	100	90	100	90	90	–
O=C(O)C(F)(F)c1cc(Cl)c(Cl)cc1O [Compound 1-298, 2-(4,5-Dichloro-2-hydroxy-phenyl)-2,2-difluoro-acetic acid]	0	20	10	–	10	0	0	0	0	0	10	–
CSc1c(C(F)(F)C(=O)O)ccc(Br)c1Cl [Compound 1-359, 2-(4-Bromo-3-chloro-2-methylsulfanyl-phenyl)-2,2-difluoro-acetic acid]	0	20	10	–	10	10	0	10	0	0	10	–
O=C(O)C(F)(F)c1cccc2cccnc12 [Compound 1-403, 2,2-Difluoro-2-(quinoline-8-yl)acetic acid]	80	20	90	–	70	30	70	80	80	90	80	–
CCOC(=O)C(F)(F)c1c(Cl)cccc1[N+](=O)[O-] [Compound 3-67, Ethyl 2-(2-chloro-6-nitrophenyl)-2,2-difluoroacetate]	0	20	50	–	50	0	10	10	0	20	10	–
Nc1c(Cl)cc(Cl)cc1C(F)(F)C(=O)O [Compound 7-253, Ammonium 2-(2-amino-3,5-dichloro-phenyl)-2,2-difluoro-acetate]	60	10	60	0	70	–	–	0	0	0	40	0
